Each compound was assayed against T1, bromodomain of BRD9 (GST-BRD9 aa 130-259) / H3 K9/14/18/23Ac(1-28) peptide (Homo sapiens, UniProt Q9H8M2) (assay: BRD9-H3 tetra-acetylated Peptide Inhibition AlphaScreen).
T1 construct: The protein corresponding to amino acids 130-259 that contains the bromodomain of BRD9; made in house; host or cells: E. coli
T1 sequence (Q9H8M2 130-259): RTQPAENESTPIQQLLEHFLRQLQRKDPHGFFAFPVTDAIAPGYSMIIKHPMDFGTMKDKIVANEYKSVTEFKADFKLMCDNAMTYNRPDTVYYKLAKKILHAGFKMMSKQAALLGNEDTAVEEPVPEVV
Type: binding

| Structure (SMILES) | IC50 [nM] |
| --- | --- |
| Cc1c(-c2ccc([C@@H](C)N)cc2)cn(C)c(=O)c1C [Compound I-139] | 1380 |
| Cc1cc(-c2ccc(C3(N(C)C)CCC3)cc2)cn(C)c1=O [Compound I-66] | 213 |
| Cc1cc(-c2ccc(S(=O)(=O)N(C)C)cc2)cn(C)c1=O [Compound I-8] | 976 |
| COc1cc(-c2cc(C)c(=O)n(C)c2C)ccc1CN1C[C@H]2C[C@@H]1CN2C [Compound I-128] | 222 |
| Cc1cc(-c2ccc([C@@H](C)N)cc2)c(C)n(C)c1=O [Compound I-141] | 1860 |
| Cc1cc(-c2ccc(C(C)N(C)C)cc2)cn(C)c1=O (centres unmarked) [Compound I-11] | 1430 |
| Cc1cc(-c2ccc([C@H](C)N3CCCC3)cc2)cn(C)c1=O [Compound I-2, 1,3-dimethyl-5-[4-((S)-1-pyrrolidin-1-yl-ethyl)-phenyl]-1H-pyridin-2-one] | 145 |
| COc1cc(-c2cn(C)c(=O)c(C)c2C)ccc1CN1C[C@H]2C[C@@H]1CN2C [Compound I-113] | 348 |
| Cc1c(-c2ccc3c(c2)CCNC3)cn(C)c(=O)c1C [Compound I-116] | 744 |
| Cc1cc(-c2ccc3c(c2)CN(C)C3)c(C)n(C)c1=O [Compound I-212] | 750 |
| Cc1cc(-c2cc(C)c(=O)n(C)c2)c(C)cc1CN1CCNCC1 [Compound I-186, 5-(2,5-Dimethyl-4-piperazin-1-ylmethyl-phenyl)-1,3-dimethyl-1H-pyridin-2-one] | 967 |
| COc1cc(-c2cc(C)c(=O)n(C)c2)c(OC)cc1CN1CCN(C)CC1 [Compound I-62] | 181 |
| COc1cc(S(=O)(=O)N2CCN(C)CC2)c(OC)cc1-c1cc(C)c(=O)n(C)c1 [Compound I-70] | 237 |
| COc1cc(-c2cn(C)c(=O)c(I)c2C)cc(OC)c1CN(C)C [Compound I-167] | 41 |
| COc1cc(-c2cc(C)c(=O)n(C)c2)ccc1CN1CC(Cl)C1 [Compound I-178, 5-[4-(3-Chloro-azetidin-1-ylmethyl)-3-methoxy-phenyl]-1,3-dimethyl-1H-pyridin-2-one] | 38 |
| Cc1c(-c2ccc(CN)cc2)cn(C)c(=O)c1C [Compound I-137, 5-(4-Aminomethyl-phenyl)-1,3,4-trimethyl-1H-pyridin-2-one] | 834 |
| COc1cc(-c2cc(C)c(=O)n(C)c2)cc(OC)c1CN1CCNCC1 [Compound I-52] | 87 |
| COc1cc(-c2cc(C)c(=O)n(C)c2)ccc1S(=O)(=O)N1CCNCC1 [Compound I-148] | 144 |
| Cc1cc(-c2ccc(C(C)N3CCCCC3)cc2)cn(C)c1=O (centres unmarked) [Compound I-6] | 318 |
| COc1cc(-c2cc(C)c(=O)n(C)c2C)ccc1C1(N(C)C)CC1 [Compound I-122] | 116 |

| Structure (SMILES) | IC50 [nM] |
| --- | --- |
| COc1cc(-c2cc(C)c(=O)n(C)c2)cc(C)c1C(=O)N1CCNCC1 [Compound I-159] | 167 |
| Cc1cc(-c2cc(C)c(=O)n(C)c2)ccc1CN [Compound I-92] | 1040 |
| COc1cc(-c2cc(C)c(=O)n(C)c2)ccc1C(=O)N1C[C@@H]2CC1CN2C [Compound I-77] | 418 |
| Cc1cc(-c2ccc(C(C)N3CCCC3)cc2)cn(C)c1=O (centres unmarked) [Compound I-5] | 137 |
| COc1cc(-c2cc(C)c(=O)n(C)c2)c(OC)cc1CN1CCNCC1 [Compound I-150] | 298 |
| Cc1cc(-c2ccc(Cn3ccnc3)cc2)cn(C)c1=O [Compound I-185] | 1550 |
| COc1cc(-c2cc(C)c(=O)n(C)c2)ccc1S(=O)(=O)NCCN(C)C [Compound I-65] | 213 |
| Cc1c(-c2ccc(C(=O)C3CCNCC3)cc2)cn(C)c(=O)c1C [Compound I-115] | 740 |
| Cc1cc(-c2cc(C)c(=O)n(C)c2)ccc1C1(N2CCN(C)CC2)CC1 [Compound I-84] | 618 |
| COc1cc(-c2cc(C)c(=O)n(C)c2)ccc1CN [Compound I-96] | 1250 |
| Cc1cc(-c2cccc(CN)c2)cn(C)c1=O [Compound I-87] | 849 |
| COc1cc(S(=O)(=O)N(C)CCN(C)C)c(OC)cc1-c1cc(C)c(=O)n(C)c1C [Compound I-125] | 166 |
| Cc1cc(-c2cn(C)c(=O)c(C)c2C)ccc1C1(N2CCN(C)CC2)CC1 [Compound I-112] | 320 |
| COCc1c(OC)cc(-c2cc(C)c(=O)n(C)c2C)cc1OC [Compound I-130] | 302 |
| COCCOc1cc(-c2cc(C)c(=O)n(C)c2)ccc1CN1CCN(C)CC1 [Compound I-195, 5-[3-(2-Methoxy-ethoxy)-4-(4-methyl-piperazin-1-ylmethyl)-phenyl]-1,3-dimethyl-1H-pyridin-2-one] | 369 |
| COc1cc(-c2cc(C)c(=O)n(C)c2C)ccc1CN1C[C@@H]2CC1CN2C [Compound I-133] | 387 |
| COc1cc(-c2cc(C)c(=O)n(C)c2)ccc1CN1C[C@@H]2CC1CN2C [Compound I-51] | 78 |
| Cc1c(-c2ccc([C@H](C)N)cc2)cn(C)c(=O)c1C [Compound I-138] | 1260 |
| COc1cc(-c2cc(I)c(=O)n(C)c2)ccc1C(=O)N1CCNCC1 [Compound I-164, 3-Iodo-5-[3-methoxy-4-(piperazine-1-carbonyl)-phenyl]-1-methyl-1H-pyridin-2-one] | 64 |

Continued, values first:

| IC50 [nM] | Structure (SMILES) |
| --- | --- |
| 4850 | CN1CCN(C(=O)c2ccc(-c3cn(C)c(=O)c4ncccc34)cc2)CC1 [II-50] |
| 340 | Cc1cc(-c2cn(C)c(=O)c3[nH]ccc23)ccc1C(=O)N1CCN(C)CC1 [III-8] |
| 344 | COc1cc(-c2cn(C)c(=O)c3cncnc23)c(OC)cc1CN(C)C [II-12] |
| 630 | COc1cc(-c2cn(C)c(=O)c3cccnc23)c(OC)cc1CN(C)C [II-26] |
| 1550 | Cn1cc(-c2ccc(CN)cc2)c2ccccc2c1=O [II-48] |
| 8 | COc1cc(-c2cn(C)c(=O)c3cnccc23)cc(OC)c1CN1CC(O)C1 [II-34] |
| 439 | Cn1cc(-c2ccc(C(=O)N3CCNCC3)cc2)c2ccccc2c1=O [II-42, 2-Methyl-4-[4-(piperazine-1-carbonyl)-phenyl]-2H-isoquinolin-1-one] |
| 126 | COc1cc(-c2cn(C)c(=O)c3ccccc23)ccc1CN(C)C [II-41, 4-(4-Dimethylaminomethyl-3-methoxy-phenyl)-2-methyl-2H-isoquinolin-1-one] |
| 917 | C[C@@H](N)c1ccc(-c2cn(C)c(=O)c3ccccc23)cc1 [II-44] |
| 5270 | CN1CCN(C(=O)c2ccc(-c3cn(C)c(=O)c4cncnc34)cc2)CC1 [II-51] |
| 81 | Cn1cc(-c2ccc(C(=O)N3CCNCC3)cc2)c2cc[nH]c2c1=O [III-6] |
| 68 | Cc1cc(-c2cn(C)c(=O)c3[nH]ccc23)ccc1C(=O)N1CCNCC1 [III-5] |
| 487 | Cn1cc(-c2ccc(C(=O)N3CCC3)cc2)c2cc[nH]c2c1=O [III-10] |
| 8 | COc1cc(-c2cn(C)c(=O)c3ccccc23)cc(OC)c1CN1CC(O)C1 [II-1, 4-[4-(3-Hydroxy-azetidin-1-ylmethyl)-3,5-dimethoxy-phenyl]-2-methyl-2H-isoquinolin-1-one] |
| 3140 | Cc1cc(-c2cn(C)c(=O)c3ccccc23)ccc1C(N)=O [II-49] |
| 953 | CN1CCN(C(=O)c2ccc(-c3cn(C)c(=O)c4cnccc34)cc2)CC1 [II-8] |
| 890 | CN1CCN(Cc2ccc(-c3cn(C)c(=O)c4ccccc34)cc2)CC1 [II-43] |
